Data reported in US8901301B2, “Pyrrolo[2,3-]pyridine kinase inhibitors” (Plexxikon Inc., priority 2009, dated 2014).

Legend:
[1] = Relative solubility by turbidity in aqueous buffers; format: physicochemical; details: for turbidity threshold (L, M, H) 4.5: pH 4.5 (Simulated Intestinal fluid); for turbidity threshold (L, M, H) 6.8: pH 6.8 (Simulated Intestinal fluid); for turbidity threshold (L, M, H) 7.4: pH 7.4 (Hepes Buffer)
Procedure: As an indication of relative solubility, the turbidity of compounds in aqueous solutions is assessed. To assess possible compound properties in different physiological compartments, such as stomach, intestine, and blood, a series of aqueous buffers with varying pH is used. Thus each compound is diluted into four different physiologically relevant buffers and solution turbidity is measured by spectrophotometry.
Compounds are dissolved at a concentration of 25 mM in dimethyl sulfoxide, then serially diluted 1:1 into a 96 well plate, diluting 10 times in pure dimethyl sulfoxide, with the final well of each row a dimethyl sulfoxide blank. In an assay plate, 99 μL of appropriate buffer is added to each well, and 1 μL of each sample dilution is added to the buffer, achieving a range of final total concentrations in aqueous solutions having different pH. The buffers used are Simulated Gastric Fluid (SGF-pH 1.5) 0.5M NaCl, pH 1.5; Simulated Intestinal fluid (SIF-pH 4.5 and pH 6.8) 0.05M NaH2PO4, pH 4.5 and 6.8; and Hepes Buffer (HEPES-pH 7.4) 10 mM HEPES, 150 mM NaCl, pH 7.4. Control compounds pyrene, estriol and propranolol HCl are also assessed. Plates are spun and then mixed for 1 minute, and the absorbance is read using a Tecan Safire II to read wavelengths in the visible range (490, 535, and 650 nm) at four locations per well, reflecting the degree of turbidity present. The average optical density for each wavelength in each well is graphed vs. compound concentration, and the concentration at which the curve crosses a threshold O.D. of 0.01 for each wavelength is reported as the endpoint turbidity assay result. The average of the three wavelengths is used to compare turbidity of compounds. Compounds are considered to have low solubility if the threshold concentration is <31.3 μM, moderate solubility if the threshold concentration is 31.3 μM to 250 μM, and high solubility if the threshold concentration is >250 μM.

Itk = target: T1, Itk (Homo sapiens, UniProt Q08881); assay: Biochemical inhibitory activity, other protein kinases: Itk; details: listing of the kinase means IC50 >1 μM
T1 sequence (Q08881 1-620): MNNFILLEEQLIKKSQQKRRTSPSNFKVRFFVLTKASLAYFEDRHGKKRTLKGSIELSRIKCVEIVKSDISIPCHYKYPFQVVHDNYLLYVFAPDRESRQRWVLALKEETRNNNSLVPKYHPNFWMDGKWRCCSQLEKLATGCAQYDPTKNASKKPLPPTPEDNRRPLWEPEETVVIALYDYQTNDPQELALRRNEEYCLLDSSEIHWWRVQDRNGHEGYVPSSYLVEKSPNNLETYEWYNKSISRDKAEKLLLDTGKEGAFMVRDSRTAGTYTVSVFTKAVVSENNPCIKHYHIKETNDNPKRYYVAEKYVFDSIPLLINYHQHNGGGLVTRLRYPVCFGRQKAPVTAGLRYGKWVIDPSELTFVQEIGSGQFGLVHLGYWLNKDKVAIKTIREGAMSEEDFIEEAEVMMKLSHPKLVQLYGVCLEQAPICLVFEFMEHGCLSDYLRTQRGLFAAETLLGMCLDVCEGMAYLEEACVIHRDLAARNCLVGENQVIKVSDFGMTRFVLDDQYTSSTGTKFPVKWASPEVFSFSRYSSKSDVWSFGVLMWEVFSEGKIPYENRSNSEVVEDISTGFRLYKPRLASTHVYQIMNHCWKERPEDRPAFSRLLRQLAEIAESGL

Jnk1 = Jnk1 (Homo sapiens, UniProt P45983); assay: Biochemical inhibitory activity, other protein kinases: Jnk1; details: listing of the kinase means IC50 >1 μM
Sequence of Jnk1 (P45983 whole entry, species assumed): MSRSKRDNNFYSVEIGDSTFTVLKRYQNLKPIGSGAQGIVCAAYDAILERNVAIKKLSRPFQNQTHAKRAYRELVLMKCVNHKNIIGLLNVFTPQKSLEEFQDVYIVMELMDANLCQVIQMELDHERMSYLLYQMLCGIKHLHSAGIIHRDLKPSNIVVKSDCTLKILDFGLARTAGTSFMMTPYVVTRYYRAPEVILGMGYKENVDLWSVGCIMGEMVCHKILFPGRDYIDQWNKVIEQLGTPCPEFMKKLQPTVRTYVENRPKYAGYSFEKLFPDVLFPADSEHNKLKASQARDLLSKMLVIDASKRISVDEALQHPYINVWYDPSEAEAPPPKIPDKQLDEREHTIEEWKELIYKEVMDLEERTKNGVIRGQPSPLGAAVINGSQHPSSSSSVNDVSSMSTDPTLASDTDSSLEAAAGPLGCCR

MAPKAPK2 = MAPKAPK2 (Homo sapiens, UniProt P49137); assay: Biochemical inhibitory activity, other protein kinases: MAPKAPK2; details: listing of the kinase means IC50 >1 μM
Sequence of MAPKAPK2 (P49137 whole entry, species assumed): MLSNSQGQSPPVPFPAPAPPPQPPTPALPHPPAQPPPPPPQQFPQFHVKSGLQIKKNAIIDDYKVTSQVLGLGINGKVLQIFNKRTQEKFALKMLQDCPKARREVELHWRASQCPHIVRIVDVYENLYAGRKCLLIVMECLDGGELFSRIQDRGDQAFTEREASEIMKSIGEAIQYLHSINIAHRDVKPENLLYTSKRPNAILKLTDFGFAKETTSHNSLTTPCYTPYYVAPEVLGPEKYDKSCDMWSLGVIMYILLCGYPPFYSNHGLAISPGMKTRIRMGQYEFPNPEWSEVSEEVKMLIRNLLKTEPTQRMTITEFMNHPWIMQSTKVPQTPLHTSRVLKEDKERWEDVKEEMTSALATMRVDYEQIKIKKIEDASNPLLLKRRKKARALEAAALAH

TrkA = TrkA (Homo sapiens, UniProt P04629); assay: Biochemical inhibitory activity, other protein kinases: TrkA; details: listing of the kinase means IC50 >1 μM
Sequence of TrkA (P04629 33-796, species assumed): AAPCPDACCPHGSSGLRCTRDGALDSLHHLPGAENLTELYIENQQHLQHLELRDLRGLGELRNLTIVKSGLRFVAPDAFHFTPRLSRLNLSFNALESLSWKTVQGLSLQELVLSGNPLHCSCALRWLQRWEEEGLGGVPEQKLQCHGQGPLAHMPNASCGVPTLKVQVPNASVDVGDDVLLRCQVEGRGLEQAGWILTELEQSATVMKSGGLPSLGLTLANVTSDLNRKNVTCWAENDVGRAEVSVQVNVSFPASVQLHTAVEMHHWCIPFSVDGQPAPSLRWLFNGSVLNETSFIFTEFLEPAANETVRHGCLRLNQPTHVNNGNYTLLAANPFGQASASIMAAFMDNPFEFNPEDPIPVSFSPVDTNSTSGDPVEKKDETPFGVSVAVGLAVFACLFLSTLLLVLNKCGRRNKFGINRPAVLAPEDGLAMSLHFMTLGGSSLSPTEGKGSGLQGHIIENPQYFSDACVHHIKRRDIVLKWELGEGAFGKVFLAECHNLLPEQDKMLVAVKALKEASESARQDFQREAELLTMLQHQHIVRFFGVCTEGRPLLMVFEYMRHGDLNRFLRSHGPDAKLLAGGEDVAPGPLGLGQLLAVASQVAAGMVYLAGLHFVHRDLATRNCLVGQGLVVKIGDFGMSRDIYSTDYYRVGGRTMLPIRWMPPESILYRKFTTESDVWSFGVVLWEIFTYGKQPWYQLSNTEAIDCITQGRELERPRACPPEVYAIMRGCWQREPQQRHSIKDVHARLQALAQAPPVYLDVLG

Ack1 = Ack1 (Homo sapiens, UniProt Q07912); assay: Biochemical inhibitory activity, other protein kinases: Ack1; details: listing of the kinase means IC50 <1 μM
Brk = Brk (Homo sapiens, UniProt Q13882); assay: Biochemical inhibitory activity, other protein kinases: Brk; details: listing of the kinase means IC50 <1 μM
Sequence of Brk (Q13882 whole entry, species assumed): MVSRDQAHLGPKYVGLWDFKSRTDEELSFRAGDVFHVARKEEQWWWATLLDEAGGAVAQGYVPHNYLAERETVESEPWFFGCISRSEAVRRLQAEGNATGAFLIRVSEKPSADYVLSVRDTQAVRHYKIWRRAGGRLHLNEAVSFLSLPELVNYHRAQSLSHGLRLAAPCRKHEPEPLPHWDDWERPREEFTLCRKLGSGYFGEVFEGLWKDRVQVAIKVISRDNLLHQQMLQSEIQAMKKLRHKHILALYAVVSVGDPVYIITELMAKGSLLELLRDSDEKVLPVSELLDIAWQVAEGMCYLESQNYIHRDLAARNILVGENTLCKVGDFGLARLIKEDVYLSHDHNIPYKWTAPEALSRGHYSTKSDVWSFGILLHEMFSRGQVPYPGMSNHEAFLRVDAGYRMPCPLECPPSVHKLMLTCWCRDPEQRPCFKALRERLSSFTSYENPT

Flt1 = Flt1 (Homo sapiens, UniProt P17948); assay: Biochemical inhibitory activity, other protein kinases: Flt1; details: listing of the kinase means IC50 >1 μM
mTor = mTor (Homo sapiens, UniProt P42345); assay: Biochemical inhibitory activity, other protein kinases: mTor; details: listing of the kinase means IC50 >1 μM
Trk = Trk (Homo sapiens, UniProt P04629); assay: Biochemical inhibitory activity, other protein kinases: Trk; details: listing of the kinase means IC50 >1 μM
Sequence of Trk (P04629 33-796, species assumed): as the sequence (P04629 33-796, species assumed) above

PI3Kγ = PI3Kγ (Homo sapiens, UniProt P48736); assay: Biochemical inhibitory activity, other protein kinases: PI3Kγ; details: listing of the kinase means IC50 >1 μM
Sequence of PI3Kγ (P48736 whole entry, species assumed): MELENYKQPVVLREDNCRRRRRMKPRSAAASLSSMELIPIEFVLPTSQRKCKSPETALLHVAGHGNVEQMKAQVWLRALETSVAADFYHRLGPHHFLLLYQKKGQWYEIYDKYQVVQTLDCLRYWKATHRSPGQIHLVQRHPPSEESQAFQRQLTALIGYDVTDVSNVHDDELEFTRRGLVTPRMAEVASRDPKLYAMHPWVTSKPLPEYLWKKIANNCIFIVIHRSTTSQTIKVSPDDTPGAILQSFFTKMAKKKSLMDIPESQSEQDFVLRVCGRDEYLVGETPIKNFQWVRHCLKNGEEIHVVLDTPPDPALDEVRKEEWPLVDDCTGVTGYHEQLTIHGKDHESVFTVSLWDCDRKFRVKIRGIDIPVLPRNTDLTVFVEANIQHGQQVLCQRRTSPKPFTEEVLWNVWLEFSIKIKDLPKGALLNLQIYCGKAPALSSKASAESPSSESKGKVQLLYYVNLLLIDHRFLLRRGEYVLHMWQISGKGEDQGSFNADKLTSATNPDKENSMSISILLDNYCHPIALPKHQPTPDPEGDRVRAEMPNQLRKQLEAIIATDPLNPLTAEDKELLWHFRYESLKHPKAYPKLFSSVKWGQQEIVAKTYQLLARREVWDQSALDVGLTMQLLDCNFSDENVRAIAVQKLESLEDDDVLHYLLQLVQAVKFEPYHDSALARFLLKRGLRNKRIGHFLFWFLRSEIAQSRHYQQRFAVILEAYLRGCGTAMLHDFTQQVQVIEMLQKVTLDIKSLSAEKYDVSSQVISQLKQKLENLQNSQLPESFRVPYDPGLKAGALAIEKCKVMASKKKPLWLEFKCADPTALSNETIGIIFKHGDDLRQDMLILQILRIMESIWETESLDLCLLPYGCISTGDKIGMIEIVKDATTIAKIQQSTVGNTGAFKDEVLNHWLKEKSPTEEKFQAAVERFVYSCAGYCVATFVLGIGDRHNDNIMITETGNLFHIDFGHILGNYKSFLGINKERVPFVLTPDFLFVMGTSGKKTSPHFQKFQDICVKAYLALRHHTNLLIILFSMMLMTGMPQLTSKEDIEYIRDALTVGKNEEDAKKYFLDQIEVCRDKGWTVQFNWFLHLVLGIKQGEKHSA

PI3Kα = PI3Kα (Homo sapiens, UniProt P42336); assay: Biochemical inhibitory activity, other protein kinases: PI3Kα; details: listing of the kinase means IC50 >1 μM
Sequence of PI3Kα (P42336 whole entry, species assumed): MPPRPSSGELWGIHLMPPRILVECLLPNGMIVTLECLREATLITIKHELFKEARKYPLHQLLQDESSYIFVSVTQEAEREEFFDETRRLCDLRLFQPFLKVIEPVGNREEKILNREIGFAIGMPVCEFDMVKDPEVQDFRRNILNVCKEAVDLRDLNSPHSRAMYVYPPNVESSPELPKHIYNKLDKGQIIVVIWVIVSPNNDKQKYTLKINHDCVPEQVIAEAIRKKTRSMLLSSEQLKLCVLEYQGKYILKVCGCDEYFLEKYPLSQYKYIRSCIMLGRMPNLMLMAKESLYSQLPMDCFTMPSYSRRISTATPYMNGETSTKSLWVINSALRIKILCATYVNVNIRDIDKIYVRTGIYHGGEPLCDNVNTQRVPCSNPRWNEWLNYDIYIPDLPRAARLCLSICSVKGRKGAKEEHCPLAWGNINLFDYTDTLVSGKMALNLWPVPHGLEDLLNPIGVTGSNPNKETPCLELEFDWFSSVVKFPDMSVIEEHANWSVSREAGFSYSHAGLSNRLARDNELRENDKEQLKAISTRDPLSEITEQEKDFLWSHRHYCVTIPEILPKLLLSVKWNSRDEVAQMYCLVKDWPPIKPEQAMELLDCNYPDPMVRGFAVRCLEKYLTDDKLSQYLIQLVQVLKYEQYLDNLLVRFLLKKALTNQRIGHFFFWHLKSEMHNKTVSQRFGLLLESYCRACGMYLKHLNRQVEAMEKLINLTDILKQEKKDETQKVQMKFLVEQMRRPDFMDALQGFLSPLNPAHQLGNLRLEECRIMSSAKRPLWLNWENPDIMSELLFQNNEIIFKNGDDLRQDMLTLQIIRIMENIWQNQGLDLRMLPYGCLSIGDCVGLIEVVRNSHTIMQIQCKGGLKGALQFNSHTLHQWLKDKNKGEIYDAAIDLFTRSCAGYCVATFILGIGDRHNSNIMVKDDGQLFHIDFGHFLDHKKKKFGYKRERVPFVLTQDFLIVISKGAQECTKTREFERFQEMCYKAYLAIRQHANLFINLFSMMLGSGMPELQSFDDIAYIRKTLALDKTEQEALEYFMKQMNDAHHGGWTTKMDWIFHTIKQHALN
Sequence of PI3Kα (P27986 whole entry partner, species assumed): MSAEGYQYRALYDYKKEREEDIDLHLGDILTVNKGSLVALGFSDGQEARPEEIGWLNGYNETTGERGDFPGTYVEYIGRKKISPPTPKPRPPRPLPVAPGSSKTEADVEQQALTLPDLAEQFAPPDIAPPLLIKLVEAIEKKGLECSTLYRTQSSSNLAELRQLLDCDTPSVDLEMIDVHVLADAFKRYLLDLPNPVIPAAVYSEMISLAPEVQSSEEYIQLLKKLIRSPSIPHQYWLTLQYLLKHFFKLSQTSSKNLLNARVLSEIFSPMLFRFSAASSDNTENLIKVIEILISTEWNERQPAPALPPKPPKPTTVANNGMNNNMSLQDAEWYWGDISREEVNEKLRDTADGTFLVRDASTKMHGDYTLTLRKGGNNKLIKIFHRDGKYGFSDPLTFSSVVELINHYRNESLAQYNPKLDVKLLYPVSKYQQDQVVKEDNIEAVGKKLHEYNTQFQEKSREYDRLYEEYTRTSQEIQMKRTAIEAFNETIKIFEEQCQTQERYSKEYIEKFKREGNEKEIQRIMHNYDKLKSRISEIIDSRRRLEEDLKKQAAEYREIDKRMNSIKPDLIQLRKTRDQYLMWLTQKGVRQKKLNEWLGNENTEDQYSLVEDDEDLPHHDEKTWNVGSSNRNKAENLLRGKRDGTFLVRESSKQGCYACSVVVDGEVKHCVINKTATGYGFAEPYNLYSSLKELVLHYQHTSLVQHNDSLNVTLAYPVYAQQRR

PI3Kδ = PI3Kδ (Homo sapiens, UniProt O00329); assay: Biochemical inhibitory activity, other protein kinases: PI3Kδ; details: listing of the kinase means IC50 >1 μM

N#Cc1cnc2[nH]cc(C(=O)c3c(F)ccc(NS(=O)(=O)c4cc(F)ccc4F)c3F)c2c1 [Compound P-0004, N-[3-(5-cyano-1H-pyrrolo[2,3-b]pyridine-3-carbonyl)-2,4-difluoro-phenyl]-2,5-difluoro-benzenesulfonamide]
turbidity threshold (L, M, H) 4.5 [1]: M (moderate solubility if the threshold concentration is 31.3 μM to 250 μM)
turbidity threshold (L, M, H) 6.8 [1]: M (moderate solubility if the threshold concentration is 31.3 μM to 250 μM)
turbidity threshold (L, M, H) 7.4 [1]: M (moderate solubility if the threshold concentration is 31.3 μM to 250 μM)
Kinase having IC50 of >1 μM (Itk): Itk
Kinase having IC50 of >1 μM (Jnk1): Jnk1

CN(C)S(=O)(=O)Nc1ccc(F)c(C(=O)c2c[nH]c3ncc(C#N)cc23)c1F [Compound P-0007, N,N-dimethylamino-sulfonic acid [3-(5-cyano-1H-pyrrolo[2,3-b]pyridine-3-carbonyl)-2,4-difluoro-phenyl]-amide]
turbidity threshold (L, M, H) 4.5 [1]: M (moderate solubility if the threshold concentration is 31.3 μM to 250 μM)
turbidity threshold (L, M, H) 6.8 [1]: H (high solubility if the threshold concentration is >250 μM)
turbidity threshold (L, M, H) 7.4 [1]: H (high solubility if the threshold concentration is >250 μM)
Kinase having IC50 of >1 μM (Itk): Itk
Kinase having IC50 of >1 μM (MAPKAPK2): MAPKAPK2
Kinase having IC50 of >1 μM (Jnk1): Jnk1

N#Cc1cnc2[nH]cc(C(=O)c3c(F)ccc(NS(=O)(=O)c4cccc(F)c4)c3F)c2c1 [Compound P-0005, N-[3-(5-cyano-1H-pyrrolo[2,3-b]pyridine-3-carbonyl)-2,4-difluoro-phenyl]-3-fluoro-benzenesulfonamide]
turbidity threshold (L, M, H) 4.5 [1]: M (moderate solubility if the threshold concentration is 31.3 μM to 250 μM)
turbidity threshold (L, M, H) 6.8 [1]: M (moderate solubility if the threshold concentration is 31.3 μM to 250 μM)
turbidity threshold (L, M, H) 7.4 [1]: M (moderate solubility if the threshold concentration is 31.3 μM to 250 μM)
Kinase having IC50 of >1 μM (Itk): Itk
Kinase having IC50 of >1 μM (Jnk1): Jnk1

CCCS(=O)(=O)Nc1cccc(C(=O)c2c[nH]c3ncc(C#N)cc23)c1F [Compound P-0003, propane-1-sulfonic acid [3-(5-cyano-1H-pyrrolo[2,3-b]pyridine-3-carbonyl)-2-fluoro-phenyl]-amide]
turbidity threshold (L, M, H) 4.5 [1]: M (moderate solubility if the threshold concentration is 31.3 μM to 250 μM)
turbidity threshold (L, M, H) 6.8 [1]: M (moderate solubility if the threshold concentration is 31.3 μM to 250 μM)
turbidity threshold (L, M, H) 7.4 [1]: M (moderate solubility if the threshold concentration is 31.3 μM to 250 μM)
Kinase having IC50 of >1 μM (MAPKAPK2): MAPKAPK2
Kinase having IC50 of >1 μM (TrkA): TrkA

N#Cc1cnc2[nH]cc(C(=O)c3c(F)ccc(NS(=O)(=O)N4CCCC4)c3F)c2c1 [Compound P-0006, pyrrolidine-1-sulfonic acid [3-(5-cyano-1H-pyrrolo[2,3-b]pyridine-3-carbonyl)-2,4-difluoro-phenyl]-amide]
turbidity threshold (L, M, H) 4.5 [1]: M (moderate solubility if the threshold concentration is 31.3 μM to 250 μM)
turbidity threshold (L, M, H) 6.8 [1]: M (moderate solubility if the threshold concentration is 31.3 μM to 250 μM)
turbidity threshold (L, M, H) 7.4 [1]: M (moderate solubility if the threshold concentration is 31.3 μM to 250 μM)
Kinase having IC50 of >1 μM (MAPKAPK2): MAPKAPK2

CCCS(=O)(=O)Nc1ccc(F)c(C(=O)c2c[nH]c3ncc(C#N)cc23)c1F [Compound P-0002, propane-1-sulfonic acid [3-(5-cyano-1H-pyrrolo[2,3-b]pyridine-3-carbonyl)-2,4-difluoro-phenyl]-amide]
turbidity threshold (L, M, H) 4.5 [1]: M (moderate solubility if the threshold concentration is 31.3 μM to 250 μM)
turbidity threshold (L, M, H) 6.8 [1]: M (moderate solubility if the threshold concentration is 31.3 μM to 250 μM)
turbidity threshold (L, M, H) 7.4 [1]: M (moderate solubility if the threshold concentration is 31.3 μM to 250 μM)
Kinase having IC50 of >1 μM (Itk): Itk
Kinase having IC50 of >1 μM (MAPKAPK2): MAPKAPK2
Kinase having IC50 of <1 μM (Ack1): Ack1
Kinase having IC50 of <1 μM (Brk): Brk
Kinase having IC50 of >1 μM (TrkA): TrkA
Kinase having IC50 of >1 μM (Flt1): Flt1

CCCS(=O)(=O)Nc1ccc(F)c(C(=O)c2c[nH]c3ncc(-c4cnc(OC)nc4)cc23)c1F [Compound P-0001, propane-1-sulfonic acid {2,4-difluoro-3-[5-(2-methoxy-pyrimidin-5-yl)-1H-pyrrolo[2,3-b]pyridine-3-carbonyl]-phenyl}-amide]
turbidity threshold (L, M, H) 4.5 [1]: M (moderate solubility if the threshold concentration is 31.3 μM to 250 μM)
turbidity threshold (L, M, H) 6.8 [1]: M (moderate solubility if the threshold concentration is 31.3 μM to 250 μM)
turbidity threshold (L, M, H) 7.4 [1]: M (moderate solubility if the threshold concentration is 31.3 μM to 250 μM)
Kinase having IC50 of >1 μM (mTor): mTor
Kinase having IC50 of >1 μM (Itk): Itk
Kinase having IC50 of >1 μM (Trk): Trk
Kinase having IC50 of >1 μM (MAPKAPK2): MAPKAPK2
Kinase having IC50 of <1 μM (Brk): Brk
Kinase having IC50 of >1 μM (Jnk1): Jnk1
Kinase having IC50 of >1 μM (PI3Kγ): PI3Kγ
Kinase having IC50 of >1 μM (PI3Kα): PI3Kα
Kinase having IC50 of >1 μM (PI3Kδ): PI3Kδ
